# Test results taken from patent US20250082646A1, “OVARIAN ANTI-AGING PHARMACEUTICAL COMPOSITION AND USE THEREOF” (priority 2022, published 2025).
# Experiments:
# [1] = test system: fertilized 2PN embryos of old mice; test: Pre-implantation development of fertilized 2PN embryos from treated old mice; format: in vivo, mouse
# Method: (§1) For in vivo hormone stimulation, the old mice were treated with the Example compound, and 12 hours later, 75 IU pregnant mare serum gonadotropin (PMSG: RP1782725000; BioVendor, Czech Republic) was injected into the mice. A control is a group administered only 751U PMSG. Female mice were superovulated by injecting hormones intraperitoneally at intervals of 48 hours. The administered hormones were PMSG (7.5 IU) and human chorionic gonadotropin (hCG: 668900221; LG Chem. Seoul, Korea: 7.5 IU). After secondary hormone treatment, female mice were mated with male mice (2:1 or 1:1). Modified pronuclear cells (2PNs) were obtained 24 hours after hCG injection.
# In Experimental Example 2, the effect of fertilized 2PN embryo development on the ovaries of the old mice treated with Example Compound was evaluated.
# 27 pronuclear cells of the old mice (n=15) treated with Example Compound and 62 pronuclear cells of the old mice (n=15) not treated with Example Compound as a control were cultured. Afterward, the number of cells at each of 2-cell, 4-cell, 8-cell, morula, early blastocyst, and late blastocyst stages was measured using a microscope, and expressed as a percentage.
# [2] = test system: Ptpn6, Fcer1g, Tyrobp, Slamf9, Clec4a3 mRNA; test: RT-qPCR of immune system regulatory genes (tumor necrosis factor superfamily cytokine production) in ovaries; format: in vivo, mouse; details: old experimental group treated, FIG. 3B
# Method: In this experiment, a change in the expression of immune system regulatory genes (genes involved with tumor necrosis factor superfamily cytokine production) was quantitatively evaluated using real-time quantitative PCR (RT-qPCR) according to the treatment of aged models with Example Compound.
# RT-qPCR was performed on each ovary using the TRIzol protocol, total RNA was extracted from a lysate using the RNeasy mini kit (Qiagen Ltd.), and the extracted total RNA was reverse-transcribed using a Superscript kit (Invitrogen) containing a random hexamer to synthesize cDNA.
# Gene expression levels were confirmed using primers and the SsoAdvanced Universal SYBR Green Supermix (Bio-Rad. US) in the CFX96 Touch Real-Time PCR detection system (Bio Rad, US).
# For each gene tested, a comparative threshold cycle (CT) method that normalizes the accumulated PCR product to the reference gene beta-actin was used, and repeated three times.
# The PCR product was loaded on a 2% agarose gel and stained with Safeview™ (Applied Biological Materials. Richmond, Canada), and the gel was visualized under UV light using a gel documentation system (WSE-6100 LuminoGraph; ATTO, Tokyo, Japan), and the product bands were analyzed by the analysis of intensity ratios using ImageJ software.
# [3] = test system: longevity-related genes, steroidogenesis-related genes, primordial follicle factors, ovarian function factors; test: RT-PCR of ovarian function-related genes in ovaries of old mice; format: in vivo, mouse
# Source text: The expression of ovarian function-related genes in the ovaries of old mice treated with Example Compound was confirmed by reverse transcription-polymerase chain reaction (RT-PCR).
# mRNA was extracted from oocytes using a TRIzol (TRIzol RNA, 15596026, Thermo Fisher) solution and subjected to RT-PCR. The PCR product was stained with SafeView™ (Applied Biological Materials, Richmond, Canada) and loaded on a 2% agarose gel. Additionally, the gel was visualized under UV light using a gel documentation system (WSE-6100 LuminoGraph; ATTO, Tokyo, Japan). The intensity ratios of the product bands were analyzed using the ImageJ software program.
# The expression of primordial follicle factors, such as Nanog, Oct3/4, and p63, and ovarian function factors, such as AMH and BMP15, in the ovaries of the mice treated with Example Compound were analyzed by RT-PCR.
# In FIGS. 4A and 4B, “Young” indicates a young mouse, “Old” indicates an old mouse, and “Old+Compound 1” indicates an old mouse treated with Example Compound.
# In FIG. 4A, the upper left box indicates longevity-related genes, the lower left box indicates steroidogenesis-related genes, the upper right box indicates primordial follicle factors, and the lower right box indicates ovarian function factors.
# [4] = test system: mouse ovaries stimulated with PMSG; test: Histology (hematoxylin and eosin) of ovaries after PMSG stimulation in vivo: number of ovarian follicles; details: treated ovaries compared to the ovaries of the control; after hormonal stimulation; FIG. 1A
# Method: In this experiment, as a control, young mice (7 to 9 weeks old, n=15), and as an experimental group, old mice (55 to 60 weeks old, n=30) were prepared. In the drawing, the experimental results of the young mice are indicated as ‘Young,’ and the experimental results of the old mice are indicated as ‘Old.’
# as §1
# In Experimental Example 1, the effect of treatment with Example Compound on mouse ovaries stimulated with PMSG in vivo was evaluated. Light microscopy imaging was performed on the ovaries of young mice, and old mice treated and not treated with Example Compound.
# Each sample was fixed with 4% paraformaldehyde at room temperature for 30 minutes, and the fixed tissue was washed with PBS and embedded in paraffin with a thickness of 5 μm. […]
# ovaries of old mice = test: Ovarian gene expression pattern by next generation sequencing (mRNA sequencing); format: in vivo, mouse; details: NGS; genes increased in the old group
# Method: A major change in gene expression caused by treatment with Example Compound was confirmed through next generation sequencing (NGS).
# mRNA sequencing was performed according to References. RNA was extracted using a TRIzol (15596026. Thermo Fisher) solution. Sequencing libraries were prepared according to the manufacturer's instructions using the TruSeq Stranded mRNA LT Sample Prep Kit (Illumina). Paired end 101 bp sequencing was performed using the Illumina platform (NovaSeq 6000, Illumina). The results of two experiments were obtained for each group.
# According to the criteria (1st trimming, base quality<3, window size=4, mean quality=15; 2nd trimming: min length=36 bp), paired end read data was trimmed using Trimmomatic (Bolger et al., 2014). Using the HISAT2 program (Kim et al., 2019; Nat Biotechnol 37, 907-915, 2019), trimmed reads were mapped to the UCSC genome database. Also, the mapping results were quantified using StringTie (Pertea et al., 2015; Nat Biotechnol. 2015 March; 33(3): 290-295) and gene/transcript-based annotations (NCBI Annotation Release 108).
# Differential expression gene analysis was performed using DESeq2 according to the criteria (baseMean counts>14, false discover rate (FDR)<0.1, and log 2FoldChange>1). […]
# old ovaries (GV oocytes) = test: Number of GV oocytes collected from ovaries after superovulation; format: in vivo, mouse; details: old ovaries treated vs old ovaries not treated; FIGS. 1B and 1C
# Method: Female mice (young mice: 7-8 weeks old; old mice: 40 weeks or older) were superovulated by intraperitoneally injecting pregnant mare serum gonadotropin (PMSG: G4527, Sigma Aldrich: 7.5 IU). Germinal vesicle (GV) oocytes were collected from the ovaries 48 hours after PMSG injection. For zygotes, female mice were injected with PMSG, and 48 hours later, injected with hCG, and then placed overnight with BDF1 stud male mice, which were approximately 10 to 12 weeks old. The next day, plugs of the female mice were examined, and zygotes and two-cell embryos were collected from the oviducts 18 to 20 hours and 36 hours after hCG injection, respectively.
# After inducing superovulation, the numbers of GV oocytes in the ovaries of the old mice and young mice treated with Example Compound were evaluated.
# The measurement of the number of GV oocytes was performed by collecting mouse eggs from each group (the number of eggs of young mice: 15: the number of eggs of old mice: 30; and the number of eggs of old mice treated with Example Compound: 30), physically chopping the eggs to collect ovarian follicles, and isolating GV oocytes in the ovarian follicles to count the number of cells.
# [5] = old mice treated, 27 pronuclear cells cultured
# [6] = old mice treated vs old mice not treated
compound,measurement,setting,value
"O=S1(=O)CCN(Cc2cc(NC3CCOCC3)c3[nH]c(-c4ccccc4)cc3c2)CC1 [Example Compound, 5-[(1,1-dioxido-4-thiomorpholinyl)methyl]-2-phenyl-N-(tetrahydro-2H-pyran-4-yl)-1H-indol-7-amine]",embryo development rate higher than that of the control embryo,"[1]; at the morula, early blastocyst, and late blastocyst stages, old mice, FIG. 2",20%
same,early blastocyst rate,[1]; [5],51.85%
same,embryo development rate at the morula stage,[1]; [5],55.56%
same,late blastocyst rate,[1]; [5],51.85%
same,"mRNA expression levels of Ptpn6, Fcerlg, Tyrobp, Slamf9, and Clec4a3",[2],lowered to levels similar to those of the young control
same,expression levels of SOD2 and SIRT1 (longevity-related genes),[3]; [6],higher
same,"expression levels of steroid production-related genes Edn2, Tbxa2r, Oxtr, and Adra1d",[3]; [6],significantly increased
same,"mRNA expression of Oct3/4, Nanog, p63, Lhcgr, AMH, GDF9, BMP15, and Kid","[3]; treated vs control not treated, FIGS. 4A and 4B",significantly higher
same,"total number of ovarian follicles, including preantral follicles and antral follicles",[4],significantly higher
same,"expression of Fcerlg, Slamf9, Clec4a3, Ptpn6, Tyrobp, Adipoq, Bcl3, Trem2, and Sash3 (TNF superfamily cytokine production DEGs)",ovaries of old mice,down-regulated
same,total number of oocytes collected at the GV stage,old ovaries (GV oocytes),significantly higher
